The values that follow come from PubChem BioAssay (NCI).

Some test systems named below: A549 NSCLC; MOLT-4 leukemia; HCT-116 colon; U251 CNS; SW-620 colon; UO-31 renal; M14 melanoma; SK-MEL-28 melanoma; SF-295 CNS; HCC-2998 colon; A498 renal; T-47D breast; OVCAR-5 ovarian.
Common to all, as to assay: growth of human tumour cells (NCI), 48 h

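Cells were grown in 96-well plates and exposed to each compound for 48 hours at five concentrations; endpoints were interpolated linearly between bracketing concentrations, or set to the highest concentration if not reached. TGI marks complete inhibition of growth.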 Some results are limits rather than exact numbers.

Turning to `CC(NNC(=O)c1ccncc1)c1ccccc1` (configuration not stated), the TGI with A549 NSCLC, with MOLT-4 leukemia, with HCT-116 colon, in the experiment on U251 CNS, with SW-620 colon and in the experiment with UO-31 renal was above 100 µM throughout. The TGI with M14 melanoma, in the experiment on SK-MEL-28 melanoma, in the experiment with SF-295 CNS, with HCC-2998 colon, in the experiment with A498 renal and in the experiment with T-47D breast was above 100 µM each time. In the experiment with OVCAR-5 ovarian, the TGI is above 100 µM.
For `S=C(NCCc1ccccn1)N/N=C(\c1ccccc1)c1ccccn1`, the TGI was above 100 µM in the experiment on A549 NSCLC; above 78.6 µM in the experiment on MOLT-4 leukemia; above 100 µM with HCT-116 colon; above 100 µM in the experiment on U251 CNS; above 100 µM with SW-620 colon; 14.1 µM in the experiment on UO-31 renal. The TGI in the experiment on M14 melanoma is above 100 µM; with SK-MEL-28 melanoma, above 100 µM; with SF-295 CNS, above 55.7 µM; with HCC-2998 colon it was above 63 µM; with A498 renal, 0.951 µM; in the experiment on T-47D breast it was above 75.7 µM. The TGI in the experiment on OVCAR-5 ovarian was above 100 µM.
`O=C1NC(=O)C(CCC(=O)c2cccc3ccccc23)C(=O)N1`: the TGI in the experiment with A549 NSCLC, in the experiment with MOLT-4 leukemia, in the experiment with HCT-116 colon, in the experiment with U251 CNS, in the experiment with SW-620 colon and in the experiment on UO-31 renal was above 100 µM each time. The TGI in the experiment with M14 melanoma, in the experiment with SK-MEL-28 melanoma, in the experiment with SF-295 CNS, in the experiment on HCC-2998 colon, with A498 renal and in the experiment on T-47D breast was above 100 µM each time. Further, the TGI with OVCAR-5 ovarian was above 100 µM.
On to `O=C1c2cc3c(cc2CC12Cc1ccccc1C2)CCC3`, for which the TGI with A549 NSCLC is above 100 µM; in the experiment on MOLT-4 leukemia it was 54.5 µM; in the experiment on HCT-116 colon, 47.5 µM; with U251 CNS, above 100 µM; in the experiment with SW-620 colon it was above 100 µM; in the experiment with UO-31 renal, above 100 µM. In addition, the TGI with M14 melanoma was 70.6 µM; in the experiment on SK-MEL-28 melanoma, above 100 µM; in the experiment with SF-295 CNS it was above 100 µM; in the experiment with HCC-2998 colon it was above 100 µM; in the experiment with A498 renal, above 100 µM; in the experiment with T-47D breast, above 100 µM. Further, the TGI in the experiment on OVCAR-5 ovarian is above 100 µM.
Turning to `CCOC(=O)c1c(CN2CCNCC2)nc2ccc(Cl)cc2c1-c1ccccc1`, the TGI amounted to 17.7 µM in the experiment with A549 NSCLC; 4.57 µM with MOLT-4 leukemia; 10.2 µM with HCT-116 colon; 26.7 µM with U251 CNS; 4.87 µM in the experiment on SW-620 colon; 9.69 µM in the experiment with UO-31 renal. Also, the TGI stood at 3.85 µM in the experiment with M14 melanoma; 7.04 µM in the experiment with SK-MEL-28 melanoma; 5.97 µM in the experiment on SF-295 CNS; 3 µM in the experiment on HCC-2998 colon; 23.4 µM with A498 renal; 20.6 µM in the experiment on T-47D breast. For the same compound, the TGI in the experiment with OVCAR-5 ovarian was found to be 36 µM.
Consider `CSc1nc(-c2ccccc2)[nH]c(=O)n1`, for which the TGI with A549 NSCLC, in the experiment with MOLT-4 leukemia, with HCT-116 colon, in the experiment with U251 CNS, in the experiment with SW-620 colon and with UO-31 renal was above 100 µM in each case. Further, the TGI in the experiment with M14 melanoma, with SK-MEL-28 melanoma, in the experiment with SF-295 CNS, in the experiment on HCC-2998 colon, with A498 renal and in the experiment with T-47D breast was above 100 µM each time. The TGI in the experiment on OVCAR-5 ovarian is above 100 µM.
On to `C/C(O)=C(/C=N/C(=S)Nc1ccccc1)C(=O)Nc1ccccc1C`, for which the TGI in the experiment on A549 NSCLC, in the experiment with MOLT-4 leukemia, with HCT-116 colon, with U251 CNS, in the experiment on SW-620 colon and with UO-31 renal was above 100 µM each time. The TGI with M14 melanoma, with SK-MEL-28 melanoma, with SF-295 CNS, in the experiment on HCC-2998 colon, in the experiment on A498 renal and in the experiment with T-47D breast was above 100 µM throughout. The same compound showed a TGI with OVCAR-5 ovarian above 100 µM.
For the compound `Cc1cc(C)c(/C=C2\C(=O)Nc3ccccc32)[nH]1`, the TGI with A549 NSCLC, with MOLT-4 leukemia, in the experiment on HCT-116 colon, in the experiment on U251 CNS, in the experiment on SW-620 colon and with UO-31 renal was above 100 µM throughout. For the same compound, the TGI in the experiment with M14 melanoma, with SK-MEL-28 melanoma, in the experiment on SF-295 CNS, with HCC-2998 colon, in the experiment on A498 renal and in the experiment on T-47D breast was above 100 µM throughout. The same compound had a TGI in the experiment with OVCAR-5 ovarian above 100 µM.
As to `FC(F)(F)c1ccc2c(-c3cc[nH]c3)ccnc2c1`, the TGI is 75 µM in the experiment with A549 NSCLC; 59.3 µM in the experiment on MOLT-4 leukemia; above 100 µM in the experiment with HCT-116 colon; above 100 µM in the experiment with U251 CNS; above 100 µM with SW-620 colon; 48.3 µM with UO-31 renal. The TGI with M14 melanoma is above 100 µM; in the experiment on SK-MEL-28 melanoma, above 100 µM; with SF-295 CNS, 84.1 µM; with HCC-2998 colon, above 100 µM; with A498 renal, 51.8 µM; with T-47D breast, above 100 µM. This compound returned a TGI with OVCAR-5 ovarian of 87.4 µM.
